Measurements from patent publication US20250205230A1 (priority 2022, published 2025).
In brackets after ≈: the same amount, converted by molar mass. Like-named read-outs stand apart in the source and are kept apart here.

Legend:
Lipophilicity (logD7.4) = conditions: for logD: pH 7.4
PERK [1] = type: cell-based; conditions: for increase in eIF2α phosphorylation: 20 μM, 0.1 MOI, lysed 24 h; for eIF2α phosphorylation (eIF2α-P relative to total eIF2α), in words: HEK293 infected at 0.1 MOI, 10 or 20 μM, lysed 24 hours post-infection
VSVΔ51M [2] = type: cell-based, vesicular stomatitis Indiana virus (VSV); conditions: 10 μM
VSVΔ51M [3] = type: cell-based, vesicular stomatitis Indiana virus (VSV)
[4] = tested on: TGEV (an alpha-coronavirus); conditions: cited from earlier work
PERK [5] = assay: eIF2α phosphorylation in non-infected HEK293 cells; type: cell-based; conditions: lysed 24 hours post-treatment
ACE2 = assay: Oligosaccharide maturation of ACE2 in transfected HEK293 cells (western blot); type: cell-based; conditions: Endo H or N-glycanase
[6] = tested on: asialoglycoprotein receptor H2b; assay: Oligosaccharide maturation of H2b in transfected HEK293 cells (western blot); type: cell-based; conditions: Endo H
SARS-CoV-2 = type: cell-based
[7] = treatment began at the start of the infection

Structure (SMILES): Oc1ccc(C=NNc2nc(-c3ccccc3)cc(-c3ccccc3)n2)cc1O (racemic) [GLB7, 4-((2-(4,6-diphenylpyrimidin-2-yl)hydrazono)methyl)benzene-1,2-diol]
- lipophilicity, in words (Lipophilicity (logD7.4); compared with MK-28): decreased lipophilicity
- logD (Lipophilicity (logD7.4)): 3.6
- increase in eIF2α phosphorylation (PERK [1]; [7]): about 1.5 fold
- eIF2α phosphorylation (eIF2α-P relative to total eIF2α), in words (PERK [1]): strong increase
- solubility (Solubility): 16 µM (≈ 6.12 µg/mL)
- solubility compared to MK-28 (Solubility; ratio GLB7 vs MK-28): more than 10 fold
- inhibition of replication, comparison between compounds (VSVΔ51M [2]): greater inhibition than MK-28
- reduction of titer of infectious virions (VSVΔ51M [2]): several orders of magnitude
- infectivity (VSV-G level), in words (VSVΔ51M [3]): major decrease in infectivity
- decrease in infectivity (VSV-G relative to actin) (VSVΔ51M [3]; 20 μM): about 3 fold

Structure (SMILES): O=C(COc1ccc(Cl)cc1)NC1CCC(NC(=O)COc2ccc(Cl)cc2)CC1 (centres unmarked) [ISRIB]
- expression of TGEV viral proteins and viral titers [4]: increased

Structure (SMILES): CN(N=Cc1ccc(O)c(O)c1)c1nc(-c2ccccc2)cc(-c2ccccc2)n1 [MK-28, 4-((2-(4,6-diphenylpyrimidin-2-yl)-2-methylhydrazineylidene)methyl) benzene-1,2-diol]
- logD (Lipophilicity (logD7.4)): 4.5
- increase in eIF2α phosphorylation (PERK [1]; treatment began 3 hours after the start of the infection): about 4 fold
- increase in eIF2α phosphorylation (PERK [1]; [7]): about 5 fold
- eIF2α phosphorylation (eIF2α-P relative to total eIF2α), in words (PERK [1]): strong increase
- solubility (Solubility): 1.4 µM (≈ 0.555 µg/mL)
- inhibition of replication, comparison between compounds (VSVΔ51M [2]): greater inhibition of replication than did GLB7
- reduction of titer of infectious virions (VSVΔ51M [2]): several orders of magnitude
- increase in eIF2α phosphorylation (PERK [5]; 10 μM): about 1.4 fold
- increase in eIF2α phosphorylation (PERK [5]; 20 μM): about 1.1 fold
- effect on maturation of ACE2 (ACE2): no effect
- effect on maturation of H2b [6]: no effect
- reduction of SARS-CoV-2 replication (titer of infectious virions) (SARS-CoV-2): 10- to 100 fold
